Assay results reported in patent US20260306460A1, “COMPOSITION FOR REMOVING AND INHIBITING SENESCENT CELLS, AND USES THEREOF” (LIFECEUTIX CO., LTD., priority 2023, published 2026).

System: obesity-induced aged C57BL6J mice
Assay: p16, MMP3, IL6 mRNA in groin fat of obese aged mice given senescent cells killed by test compound, Example 16
Assay type: in vivo, mouse
Details: no administration = 100%
Source text: To obtain preadipocytes, groin fat tissue was collected from an 8-week-old female C57BL6J mouse (KRIBB Laboratory Animal Resource Center). The fat tissue was cut into small pieces and treated with collagenase to decompose the fat tissue, then centrifuged to collect the stromal vascular fraction (SVF) containing preadipocytes. It was washed with a washing medium (HBSS, GenDEPOT; 3.5% Albumin Fraction V, GenDEPOT; 100 U/ml Penicillin & Streptomycin, Invitrogen), mixed again, and extracted by filtering through a 100 μm nylon mesh. The isolated preadipocytes were cultured in the designated medium (DMEM, GenDEPOT; 20% FBS, GenDEPOT; 100 U/ml Penicillin & Streptomycin, Invitrogen). In the same manner as Example 1 of WO2023-085787 A1, cells were treated with doxorubicin at a concentration of 250 nM for 24 hours and cultured for an additional 21 days to induce cell senescence. […] By treating the test compound in the same manner as in Example 13, it was confirmed using an optical microscope that the death of most senescent cells was induced. […] Afterwards, the mouse was sacrificed in the same manner as in Example 7-2 of WO2023-085787 A1, total RNA was extracted from the groin fat tissue, and qRT-PCR was performed and analyzed using the synthesized cDNA. […] The mRNA amount of p16, MMP3, and IL6 without administration of senescent cells whose death was induced by the test compound were calculated as 100%, and the amount of p16, MMP3, and IL6 after administration of the senescent cells whose death was induced by the test compound were compared with them. […] The amount of activity evaluation without administration of senescent cells whose death was induced by the test compound was calculated as 100% and compared it with the amount of activity evaluation after administration of senescent cells whose death was induced by the test compound. […]

[1] = senescent preadipocytes killed by test compound sc

SMILES: S=C(N/N=C1\CCCc2cccnc21)N1CCN(c2ccccn2)CC1 [LX-801]
- IL6 mRNA [1]: 79.4 (±4.6) %
- MMP3 mRNA [1]: 81.7 (±2.9) %
- p16 mRNA (senescent preadipocytes killed by test compound, 5×10^5 cells sc): 79.8 (±3.4) %
